Results from patent US20200375999A1, “PHARMACEUTICAL COMBINATIONS OF EGFR INHIBITORS AND METHODS OF USE THEREOF” (DANA-FARBER CANCER INSTITUTE, INC., priority 2018, published 2020).
Where two headings read alike, the source gives them in different places.

Legend:
[1] = biological target: T1, EGFR T790M/L858R Ba/F3 cell line (Homo sapiens, UniProt P00533, T790M/L858R, cells depend on it); test: Ba/F3 cell proliferation (MTS assay), EGFR T790M/L858R; assay type: cell-based, murine; details: for Activity (% cetuximab); inhibition of proliferation: compound at 1 μM in the presence of 1 μg/mL cetuximab; for Activity (% cetuximab); inhibition of proliferation / Activity (% DMSO control); inhibition of proliferation: EGFR T790M/L858R Ba/F3; for Activity (% DMSO control); inhibition of proliferation: compound at 1 μM
T1 construct: "The constructs were shuttled into the retroviral vector JP1540 using the BD Creator™ System (BD Biosciences)
Procedure: All cell lines were maintained in RPM 1640 (Cellgro; Mediatech Inc., Herndon, Calif.) supplemented with 10% FBS 100 units/mL penicillin, 100 units/mL streptomycin, and 2 mM glutamine. […] The EGFR 1941R mutation was introduced via site directed mutagenesis using the Quick Change Site-Directed Mutagenesis kit (Stratagene: La Jolla, Calif.) according to the manufacturer's instructions. All constructs were confirmed by DNA sequencing. The constructs were shuttled into the retroviral vector JP1540 using the BD Creator™ System (BD Biosciences). Ba/F3 cells were infected with retrovirus and according to standard protocols, as described previously (Zhou 2009). Stable clones were obtained by selection in puromycin (2 μg/ml).
Growth and inhibition of growth was assessed by MTS assay and was performed according to previously established methods (Zhou 2009). The MTS assay is a colorimetric method for determining the number of viable cells that is based on the bioreduction of MTS by cells to a formazan product that is soluble in cell culture medium and can be detected spectrophotometrically. […] All experimental points were set up in six wells and all experiments were repeated at least three times. […] The curves were fitted using anon-linear regression model with a sigmoidal dose response.

[2] = system: EGFR L858R/T790M/C797S Ba/F3 cell line; test: Ba/F3 cell proliferation (MTS assay), EGFR L858R/T790M/C797S; assay type: cell-based, murine; details: for Activity (% cetuximab); inhibition of proliferation: compound at 1 μM in the presence of 1 μg/mL cetuximab, EGFR L858R/T790M/C797S; for Activity (% DMSO control); inhibition of proliferation: compound at 1 μM, EGFR L858R/T790M/C797S Ba/F3
Procedure: The EGFR mutant L858R, Del E746_A750, L858R/T790M, DelE746_A750/T790M, L858R/T790M/C797S and Del/T790M/C797S Ba/F3 cells were previously described (Zhou et al., Nature 462, (2009), 1070-1074). All cell lines were maintained in RPM 1640 (Cellgro; Mediatech Inc., Herndon, Calif.) supplemented with 10% FBS 100 units/mL penicillin, 100 units/mL streptomycin, and 2 mM glutamine. L858R cells were maintained in ACL-4 media (Invitrogen, Carlsbad, Calif.) supplemented with 5% FBS, 100 units/mL penicillin, 100 units/mL streptomycin, and 2 mM glutamine. The EGFR 1941R mutation was introduced via site directed mutagenesis using the Quick Change Site-Directed Mutagenesis kit (Stratagene: La Jolla, Calif.) according to the manufacturer's instructions. All constructs were confirmed by DNA sequencing. The constructs were shuttled into the retroviral vector JP1540 using the BD Creator™ System (BD Biosciences). Ba/F3 cells were infected with retrovirus and according to standard protocols, as described previously (Zhou 2009). Stable clones were obtained by selection in puromycin (2 μg/ml).
Growth and inhibition of growth was assessed by MTS assay and was performed according to previously established methods (Zhou 2009). The MTS assay is a colorimetric method for determining the number of viable cells that is based on the bioreduction of MTS by cells to a formazan product that is soluble in cell culture medium and can be detected spectrophotometrically. Ba/F3 cells of different EGFR genotypes were exposed to treatment and the number of cells used per experiment determined empirically and has been previously established (Zhou 2009). All experimental points were set up in six wells and all experiments were repeated at least three times. […] The curves were fitted using anon-linear regression model with a sigmoidal dose response.

[3] = biological target: T2, recombinant EGFR T790M/L858R kinase (Homo sapiens, UniProt P00533, L858R/T790M); test: HTRF-based EGFR biochemical assay
T2 construct: Constructs spanning residues 696-1022 of the human EGFR; GST (cleaved yes); made in house; host or cells: Sf9 insect cells
Procedure: EGFR kinase proteins were purified by glutathione-affinity chromatography followed by size-exclusion chromatography after cleavage with TEV or thrombin to remove the GST fusion partner following established procedures. (Yun 2008; Yun 2007).
EGFR biochemical assays were carried out using a homogeneous time-resolved fluorescence (HTRF) assay as described previously. The reaction mixtures contained 1 μM biotin-Lck-peptide substrate, wild type or mutant EGFR enzyme in reaction buffer (50 mM HEPES pH 7.1, 10 mM MgCl2, 0.01% BSA. 1 mM TCEP and 0.1 mM Na3VO4) at a final volume of 10 μL. […] All reactions were carried out at room temperature in white ProxiPlate™ 384-well Plus plates (PerkinElmer) and were quenched with 5 μL of 0.2 M EDTA at 60 min. Five μL per well of the detection reagent containing 2.5 ng PT66K (Cis-bio) and 0.05 μg SAXL (Prozyme) were added, and the plates were then incubated at room temperature for 1 hour and read with an EnVision plate reader.

[4] = absence of cetuximab, read-out: Ba/F3 cellular activity (EC50) T790M/L858R
[5] = read-out: Ba/F3 cellular activity (EC50) T790M/L858R + Cetuximab (1 μg/mL), presence of 1 μg/mL cetuximab

T1 sequence (P00533 whole entry T790M/L858R): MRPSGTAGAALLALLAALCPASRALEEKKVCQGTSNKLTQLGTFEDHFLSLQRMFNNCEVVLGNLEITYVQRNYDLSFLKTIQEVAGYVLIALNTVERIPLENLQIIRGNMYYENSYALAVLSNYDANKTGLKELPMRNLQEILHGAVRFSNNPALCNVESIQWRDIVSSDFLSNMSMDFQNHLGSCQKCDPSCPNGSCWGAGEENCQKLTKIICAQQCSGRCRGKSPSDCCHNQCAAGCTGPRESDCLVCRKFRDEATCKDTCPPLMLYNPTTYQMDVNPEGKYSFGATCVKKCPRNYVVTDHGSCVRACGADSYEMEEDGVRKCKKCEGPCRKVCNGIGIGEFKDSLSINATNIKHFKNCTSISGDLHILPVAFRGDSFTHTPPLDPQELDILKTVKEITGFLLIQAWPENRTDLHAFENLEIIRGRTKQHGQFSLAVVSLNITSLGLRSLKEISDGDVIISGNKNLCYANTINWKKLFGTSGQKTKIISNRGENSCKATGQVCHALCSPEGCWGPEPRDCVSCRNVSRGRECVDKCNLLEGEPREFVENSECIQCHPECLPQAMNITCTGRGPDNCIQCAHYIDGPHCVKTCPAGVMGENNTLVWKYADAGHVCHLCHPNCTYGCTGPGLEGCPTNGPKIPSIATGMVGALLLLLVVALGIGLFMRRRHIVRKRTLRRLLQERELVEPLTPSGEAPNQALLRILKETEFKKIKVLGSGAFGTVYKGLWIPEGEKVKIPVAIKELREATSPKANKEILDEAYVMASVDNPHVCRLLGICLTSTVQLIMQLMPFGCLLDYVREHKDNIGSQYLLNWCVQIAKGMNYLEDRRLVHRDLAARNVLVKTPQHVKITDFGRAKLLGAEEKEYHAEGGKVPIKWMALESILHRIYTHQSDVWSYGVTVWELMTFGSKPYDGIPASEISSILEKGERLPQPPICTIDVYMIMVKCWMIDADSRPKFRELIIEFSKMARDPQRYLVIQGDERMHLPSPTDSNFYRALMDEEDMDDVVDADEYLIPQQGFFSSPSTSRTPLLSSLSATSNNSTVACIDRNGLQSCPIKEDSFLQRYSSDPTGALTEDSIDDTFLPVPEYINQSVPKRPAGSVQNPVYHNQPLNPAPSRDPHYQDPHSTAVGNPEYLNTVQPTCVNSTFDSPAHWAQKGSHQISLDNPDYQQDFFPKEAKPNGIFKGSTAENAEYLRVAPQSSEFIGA
T2 sequence (P00533 696-1022 T790M/L858R): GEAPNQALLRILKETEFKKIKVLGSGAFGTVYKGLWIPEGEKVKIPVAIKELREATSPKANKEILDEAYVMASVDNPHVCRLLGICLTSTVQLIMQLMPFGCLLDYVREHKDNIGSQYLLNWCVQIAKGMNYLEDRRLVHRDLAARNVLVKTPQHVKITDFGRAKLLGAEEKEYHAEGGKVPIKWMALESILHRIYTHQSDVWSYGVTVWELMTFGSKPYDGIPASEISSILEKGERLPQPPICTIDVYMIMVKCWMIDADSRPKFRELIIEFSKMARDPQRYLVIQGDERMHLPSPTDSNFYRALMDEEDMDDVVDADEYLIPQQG

SMILES	EC50 [1, 4]	Activity (% cetuximab); inhibition of proliferation [1]	Activity (% DMSO control); inhibition of proliferation [1]	EC50 [1, 5]	Activity (% cetuximab); inhibition of proliferation [2]	Activity (% DMSO control); inhibition of proliferation [2]	IC50 [3]
O=C1c2cc(-c3ccc(N4CCNCC4)cc3)ccc2Nc2ccc(F)cc2N1c1ccccc1 [Compound I-5]	≥ 0.75 µM	D (75 ≤ D)	D (75 ≤ D)	≥ 0.75 µM	D (75 ≤ D)	D (75 ≤ D)	≥ 0.75 µM
CN1CCC(c2ccc(-c3ccc4c(c3)C(=O)N(Cc3ccccc3)c3cc(F)ccc3N4)cc2)CC1 [Compound I-17]	–	–	–	–	–	–	< 0.25 µM
O=C1c2cc(-c3ccc(N4CCNCC4)cc3)ccc2Nc2ccc(F)cc2N1Cc1ccc2cc[nH]c2c1 [Compound I-19]	≥ 0.75 µM	–	–	≥ 0.75 µM	–	–	≥ 0.75 µM
CC(=O)Nc1ccc2c(c1)N(Cc1ccccc1)C(=O)c1cc(-c3ccc4[nH]ccc4c3)ccc1N2 [Compound I-15]	≥ 0.75 µM	–	–	≥ 0.75 µM	–	–	≥ 0.75 µM
O=C1c2cc(-c3ccc4[nH]ccc4c3)ccc2Nc2ccc(F)cc2N1Cc1ccccc1 [Compound I-2]	≥ 0.75 µM	B (25 ≤ B < 50)	D (75 ≤ D)	< 0.25 µM	A (0 ≤ A < 25)	D (75 ≤ D)	< 0.25 µM
CN1CCC(n2cc(-c3ccc4c(c3)C(=O)N(Cc3cccc(F)c3)c3cc(F)ccc3N4)cn2)CC1 [Compound I-22]	–	–	–	–	–	–	< 0.25 µM
O=C1c2cc(-c3ccc4[nH]ccc4c3)ccc2Nc2ccc(F)cc2N1Cc1cccnc1 [Compound I-9]	≥ 0.75 µM	D (75 ≤ D)	D (75 ≤ D)	≥ 0.75 µM	D (75 ≤ D)	D (75 ≤ D)	≥ 0.75 µM
Nc1ccc2c(c1)N(Cc1ccccc1)C(=O)c1cc(-c3ccc4[nH]ccc4c3)ccc1N2 [Compound I-14]	≥ 0.75 µM	–	–	≥ 0.75 µM	–	–	≥ 0.75 µM
O=C1c2cc(-c3ccc(N4CCNCC4)cc3)ccc2Nc2ccc(F)cc2N1Cc1cccc2cc[nH]c12 [Compound I-18]	≥ 0.75 µM	–	–	< 0.25 µM	–	–	< 0.25 µM
O=C1c2cc(-c3ccc(N4CCNCC4)cc3)ccc2Nc2ccc(F)cc2N1Cc1ccccc1 [Compound I-1]	≥ 0.75 µM	B (25 ≤ B < 50)	D (75 ≤ D)	0.5 to 0.75 µM	B (25 ≤ B < 50)	D (75 ≤ D)	–
CN1CCC(n2cc(-c3ccc4c(c3)C(=O)N(Cc3cccc(Cl)c3)c3cc(F)ccc3N4)cn2)CC1 [Compound I-23]	≥ 0.75 µM	–	–	≥ 0.75 µM	–	–	< 0.25 µM
CN1CCC(n2cc(-c3ccc4c(c3)C(=O)N(Cc3cc(F)cc(F)c3)c3cc(F)ccc3N4)cn2)CC1 [Compound I-24]	≥ 0.75 µM	–	–	≥ 0.75 µM	–	–	< 0.25 µM
O=C1c2cc(-c3ccc(N4CCNCC4)cc3)ccc2Nc2ccc(F)cc2N1Cc1nccs1 [Compound I-7]	≥ 0.75 µM	C (50 ≤ C < 75)	D (75 ≤ D)	≥ 0.75 µM	D (75 ≤ D)	D (75 ≤ D)	< 0.25 µM
O=C1c2cc(Br)ccc2Nc2ccc(F)cc2N1Cc1ccccc1 [I-a]	≥ 0.75 µM	–	–	0.25 to 0.5 µM	–	–	< 0.25 µM
O=C1c2cc(-c3ccc4[nH]ccc4c3)ccc2Nc2ccc(F)cc2N1Cc1nccs1 [Compound I-10]	≥ 0.75 µM	D (75 ≤ D)	D (75 ≤ D)	≥ 0.75 µM	C (50 ≤ C < 75)	D (75 ≤ D)	≥ 0.75 µM
O=C1c2cc(-c3ccc(-c4cn[nH]c4)cc3)ccc2Nc2ccc(F)cc2N1Cc1ccccc1 [Compound I-4]	≥ 0.75 µM	A (0 ≤ A < 25)	D (75 ≤ D)	0.25 to 0.5 µM	A (0 ≤ A < 25)	D (75 ≤ D)	< 0.25 µM
O=C1c2cc(-c3ccc(N4CCNCC4)cc3)ccc2Nc2ccccc2N1Cc1ccccc1 [Compound I-11]	≥ 0.75 µM	B (25 ≤ B < 50)	D (75 ≤ D)	0.25 to 0.5 µM	C (50 ≤ C < 75)	D (75 ≤ D)	< 0.25 µM
O=C1c2cc(-c3ccc(N4CCNCC4)cc3)ccc2Nc2ccncc2N1Cc1ccccc1 [Compound I-13]	≥ 0.75 µM	–	–	≥ 0.75 µM	–	–	≥ 0.75 µM
O=C1c2cc(-c3ccc(N4CCNCC4)cc3)ccc2Nc2ncc(F)cc2N1Cc1ccccc1 [Compound I-12]	≥ 0.75 µM	–	–	≥ 0.75 µM	–	–	≥ 0.75 µM
CN1CCC(n2cc(-c3ccc4c(c3)C(=O)N(Cc3cccc5cc[nH]c35)c3cc(F)ccc3N4)cn2)CC1 [Compound I-25]	≥ 0.75 µM	–	–	≥ 0.75 µM	–	–	< 0.25 µM
O=C1c2cc(-c3ccc(N4CCNCC4)cc3)ccc2Nc2ccc(F)cc2N1Cc1cccnc1 [Compound I-6]	≥ 0.75 µM	D (75 ≤ D)	D (75 ≤ D)	≥ 0.75 µM	D (75 ≤ D)	D (75 ≤ D)	≥ 0.75 µM
CCC(=O)Nc1ccc2c(c1)N(Cc1ccccc1)C(=O)c1cc(-c3ccc4[nH]ccc4c3)ccc1N2 [Compound I-16]	0.25 to 0.5 µM	–	–	0.25 to 0.5 µM	–	–	≥ 0.75 µM
CN1CCN(c2ccc(Oc3ccc4c(c3)C(=O)N(Cc3ccccc3)c3cc(F)ccc3N4)cc2)CC1 [Compound I-20, 10-benzyl-8-fluoro-2-(4-(4-methylpiperazin-1-yl)phenoxy)-5,10-dihydro-11H-dibenzo[b,e][1,4]diazepin-11-one]	≥ 0.75 µM	–	–	0.25 to 0.5 µM	–	–	< 0.25 µM
CN1CCC(n2cc(-c3ccc4c(c3)C(=O)N(Cc3ccccc3)c3cc(F)ccc3N4)cn2)CC1 [Compound I-3]	≥ 0.75 µM	B (25 ≤ B < 50)	D (75 ≤ D)	< 0.25 µM	C (50 ≤ C < 75)	D (75 ≤ D)	< 0.25 µM
